# Source: PMC12040169 (PLOS Biology, 2025)
# Test: in vitro
# Details: human, hela cells, % viability
row,Structure (SMILES),"viability at 28.5 h, 10 µM [%]"
1,CCn1c(SCC(=O)Nc2ccc(C(=O)O)cc2)nnc1-c1ccccc1C [CBK265927],107
2,Cc1ccc(-c2nc3ccccc3[nH]2)cc1NC(=O)COc1cccc([N+](=O)[O-])c1 [CBK265932],94.3
3,CCc1cccc(CC)c1NC(=O)CN(c1cccc(Cl)c1Cl)S(C)(=O)=O [CBK265934],103
4,OCCN(CCO)c1nc(-c2ccccc2)nc2sc(-c3ccccc3)cc12 [CBK265935],105
5,COCCn1c(SCc2ccc([N+](=O)[O-])cc2)nnc1-c1ccccc1 [CBK265937],89.6
6,Cc1sc2ncnc(SCC(=O)Nc3sc4c(c3C#N)CCCC4)c2c1-c1ccccc1 [CBK265938],93.3
7,NCc1oc(-c2ccccc2)cc1C(=O)O [CBK265941C],89.8
8,COC(=O)c1c(NC(=O)CSc2nnc3ccccn23)sc(C)c1C [CBK265943],95.7
9,COc1ccc(-c2ccc(CCC(=O)O)n2Cc2ccco2)cc1 [CBK265945],92.6
10,NC1=C(c2nc3ccccc3s2)C(=O)CN1CCN1CCOCC1 [CBK265946],93.1
11,N#Cc1c(C(F)(F)F)cc(-c2cccs2)nc1SCC(O)CN1CCSCC1 (centres unmarked) [CBK265947],88.2
12,O=C(COc1ccc(S(=O)(=O)NC2CCCCC2)cc1)N1CCN(c2cccc(Cl)c2)CC1 [CBK265948],90.6
13,COc1ccc(-c2cc(-c3ccccc3)c(C#N)c(S(=O)(=O)Cc3ccccc3)n2)cc1 [CBK265949],89.6
14,NC(=S)Nn1c(CCC(=O)O)ccc1-c1cccs1 [CBK265952],92.3
15,O=C(O)CCc1ccc(-c2ccc(F)cc2)n1Cc1ccco1 [CBK265953],83.9
16,Cc1cc(I)ccc1NC(=O)CN(c1ccccc1)S(=O)(=O)c1ccccc1[N+](=O)[O-] [CBK265954],78.6
17,CCn1c(COc2ccccc2Cl)nnc1SCC(=O)N1c2ccccc2Sc2ccccc21 [CBK265957],114
18,COC(=O)c1ccccc1NC(=O)CCSc1ccc(C)cc1 [CBK265958],91.9

row,Structure (SMILES),"viability at 28.5 h, 10 µM [%]"
1,O=C(COc1ccc(S(=O)(=O)NC2CCCCC2)cc1)Nc1ccc2c(c1)OCO2 [CBK265960],84.5
2,Cc1ccc(Nc2nc(N)nc(CSCCO)n2)cc1 [CBK265962],97.1
3,O=c1c2ccccc2nc2c3ccccc3c(NCc3ccccn3)nn12 [CBK265964],89.3
4,CCOC(=O)c1cnc2c(C)c(Cl)ccc2c1NCCN(C)C [CBK265965],102
5,COC(=O)c1ccccc1NC(=O)CSc1nnc(-c2ccccc2Cl)[nH]1 [CBK265966],95.4
6,N#Cc1cc2c(nc1SCC(O)COCc1ccccc1)CCCC2 (centres unmarked) [CBK265967],104
7,Clc1ccc(-c2csc3ncnc(SCc4ccco4)c23)cc1 [CBK265972],90.5
8,CCOC(=O)c1cnc2c(C)cc(Cl)cc2c1N1CCN(Cc2ccccc2)CC1 [CBK265975],108
9,CC(C)C12CN3CC(C(C)C)(CN(C1)C3c1ccc3c(c1)OCO3)C2=O (centres unmarked) [CBK265981],100
10,O=C(CN1C(=O)c2ccccc2S1(=O)=O)N(Cc1ccccc1)Cc1ccccc1 [CBK265982],107
11,O=C(O)CCc1ccc(-c2ccc(Cl)cc2)n1Cc1ccco1 [CBK265984],92.4
12,COc1ccc(-n2c(Cc3ccccc3)nnc2SCC(=O)c2ccccc2)cc1 [CBK265989],105
13,Cc1cc(C)c(NC(=O)CSc2nnc(Cc3ccccc3)n2C)c(C)c1 [CBK265990],110
14,Cc1ccc(S(=O)(=O)NCC(=O)N2CCN(Cc3ccccc3)CC2)cc1 [CBK265991],104
15,O=C(Nc1ccccc1N1CCOCC1)c1ccc(OCc2ccccc2)cc1 [CBK265992],96.3
16,COC(=O)COc1ccc(S(=O)(=O)N2CCC(C(N)=O)CC2)cc1 [CBK265993],96.7
17,CCc1ccc(OCC(=O)O/N=C(\N)c2ccncc2)c(Br)c1 [CBK265994],86.6
